Literature values in US20190060340A1, “NOVEL AMINOGLYCOSIDES AND USES THEREOF IN THE TREATMENT OF GENETIC DISORDERS” (Technion Research & Development Foundation Limited, priority 2007, published 2019).

Tests used:
[1] = available toxicity data on aminoglycosides; unit inferred; cited from earlier work
stop mutations = conditions: literature; cited from earlier work

In the case of `NC[C@H]1O[C@H](O[C@H]2[C@H](O)[C@@H](O[C@H]3O[C@H](CO)[C@@H](O)[C@H](N)[C@H]3O)[C@H](N)C[C@@H]2N)[C@H](N)C[C@@H]1O` [tobramycin], the LD50 [1] is given as 79 mg/kg and the “stop mutations suppression / read-through activity” value (stop mutations) is given as “do not have stop mutations suppression activity”.
